{
  "source": "patent US9205073B2",
  "about": "“Method for treating virus infection using derivative of aniline” (CHINA MEDICAL UNIVERSITY, priority 2014, dated 2015)",
  "key": {"[1]": {"system": "PKR, OAS, IFN-α and interferon receptor", "experiment": "Real-time PCR of anti-virus gene expression in JEV T1P1-infected TE671 cells", "format": "cell-based", "conditions": "JEV T1P1-infected TE671 cells (M.O.I.=1), 8 hours, compound 125", "description": "TE671 cells were cultured in a 6-well culture plate in accordance with the experimental conditions. The next day, TE671 cells were infected with the JEV T1P1 virus strain (M.O.I.=1), and various concentrations (the final concentration of compound 1 were about 0 or 125 respectively) of compound 1 were added into different wells simultaneously. The cells were then incubated in an incubator (37° C., 5% CO2) for 8 hours, and then collected. The cells were re-suspended with PBS and precipitated by centrifugation (2000 rpm, 5 minutes), and then extracted by Pure Link RNA Mini Kit to obtain the RNA. If the obtained RNA was desired to be stored at −20° C., then the RNA would have to reverse transcribed into cDNA using the following reverse transcription PCR (RT-PCR) steps: i) 11 μl RNA was placed into a microtube, and put into a 55° C. […]\nThe expression of anti-virus genes was analyzed by real-time PCR. […] Then, the amount of fluorescence of each cycle was determined by ABI Prism 7500 software. The fold difference of each gene as compared to the control group was calculated by using Ct to calculate ΔCt and ΔΔCt (i.e., ΔCt=Ct. exp−Ct. control, ΔΔCt=ΔCt. exp−ΔCt. mock). Then, 2^−ΔΔCt can thereby be calculated."}, "[2]": {"experiment": "MTT assay, cell survival / CC50 in TE671 cells", "format": "cell-based", "conditions": "human, read-out: concentration of 50% cytotoxicity (CC50)", "description": "In this example, 3-(4,5-dimethylthiazol-2-yl)-2,5-diphenyl tetrazolium bromide (MTT) was used to determine if the survival rate of BHK-21 cells, TE671cells and RD cells would be influenced when being treated with different concentrations of compound 1 prepared in Example 1. The concentration of 50% cytotoxicity (CC50) of compound 1 in BHK-21 cells, TE671cells and RD cells was also calculated.\nMTT is a water-soluble tetrazolium salt which can react in the mitochondrial respiratory chain in living cells to metabolize and reduce the tetrazolium bromide shown in the structure of MTT and to form an water-insoluble purple crystal formazan under the reaction of succinate dehydrogenase (SDH) and cytochrome c (cyt c). The amount of the produced crystal is directly proportional to the number of living cells (because the SDH will disappear from dead cells, and thus, the MTT cannot be reduced). Furthermore, a mitochondrium is an organelle in cells that is most sensitive to the environment, and thus, the MTT assay can serve as a marker for the survival rate of cells treated by the drug.\nBHK-21 cells, TE671cells and RD cells were cultured in a 96-well culture plate, respectively, with an initial density of 3×10^3 per well, and with 100 μl of 2% FBS-containing MEM medium per well. […] The absorbances of the samples were measured by ELISA at a wavelength of 570/630 nm."}},
  "data": [
    {"smiles": "CCOC(=O)C1=C(Nc2cc(C)cc(C)c2)OCC1=O", "note": "[Compound 1, ethyl 2-(3′,5′-dimethylanilino)-4-oxo-4,5-dihydrofuran-3-carboxylate]", "values": [
      {"measurement": "relative gene expression levels of PKR, OAS, IFN-α and interferon receptor", "setting": "[1]", "result": "increase"},
      {"measurement": "CC50 at 48 h", "setting": "[2]", "result": 189, "unit": "µM"}
    ]}
  ]
}
